# Measurements: article PMC3763849 (ACS medicinal chemistry letters, 2013)
# Entries after “also recorded” stand apart in the source; their conditions may differ.
# Legend:
# HIV-1LAI = assay: HIV-1 susceptibility assay in human PBM cells infected with HIV-1LAI; assay type: cell-based; conditions: for fold greater potency versus HIV-1 compared to parent nucleoside: phosphoramidate versus parent nucleoside
# HBV = assay: Antiviral activity against HBV in the HepAD38 cell system; assay type: cell-based
# PBM cells = assay: Cellular pharmacology in PBM cells: intracellular nucleoside triphosphate levels; assay type: in vitro ADME, human
# [1] = test system: five tested cell lines (PBM, HepG2, Huh7, Vero, CEM); assay: Cytotoxicity across the five tested cell systems; assay type: cell-based
Structure (SMILES),fold greater potency versus HIV-1 compared to parent nucleoside (HIV-1LAI),formation of dioxolane-A triphosphate (PBM cells),other results
CCOC(=O)CCc1ccccc1OP(=O)(N[C@@H](C)C(=O)OCC)OC[C@@H]1OC[C@H](n2cnc3c(OC)ncnc32)O1 (stereo partly drawn) [Compound 20],"up to 3,600 fold",,
"Nc1nc(N)c2ncn([C@H]3CO[C@@H](CO)O3)c2n1 [DAPD, Amdoxovir, reference compound]",,,activity versus HBV (HBV): low micromolar
CCOC(=O)CCc1ccccc1OP(=O)(N[C@@H](C)C(=O)OCC)OC[C@@H]1OC[C@H](n2cnc3c(N)ncnc32)O1 (stereo partly drawn) [Compound 18],"up to 3,600 fold",found to form the dioxolane-A triphosphate; also recorded: highest levels of dioxolane-A triphosphate,
CCOC(=O)CCc1ccccc1OP(=O)(N[C@@H](C)C(=O)OCC)OC[C@@H]1OC[C@H](n2cnc3c(NC4CC4)ncnc32)O1 (stereo partly drawn) [Compound 23],,found to form the dioxolane-A triphosphate,
CCOC(=O)[C@H](C)NP(=O)(OC[C@@H]1OC[C@H](n2cnc3c(NC4CC4)ncnc32)O1)Oc1ccccc1 (stereo partly drawn) [Compound 22],"up to 3,600 fold",found to form the dioxolane-A triphosphate,cytotoxicity in the five tested cell lines [1]: no observed cytotoxicity
OC[C@@H]1OC[C@H](n2cnc3c(NC4CC4)ncnc32)O1 [Compound 8],,,cytotoxicity in the five tested cell lines [1]: did not display any cytotoxicity; activity versus HBV (HBV): essentially not active; activity versus HIV (HIV-1LAI): essentially not active
CCOC(=O)[C@H](C)NP(=O)(OC[C@@H]1OC[C@H](n2cnc3c(N)ncnc32)O1)Oc1ccccc1 (stereo partly drawn) [Compound 17],"up to 3,600 fold",found to form the dioxolane-A triphosphate; also recorded: highest levels of dioxolane-A triphosphate,
CCOC(=O)[C@H](C)NP(=O)(OC[C@@H]1OC[C@H](n2cnc3c(OC)ncnc32)O1)Oc1ccccc1 (stereo partly drawn) [Compound 19],"up to 3,600 fold",,
"Nc1ncnc2c1ncn2[C@H]1CO[C@@H](CO)O1 [Compound 6, (−)-β-D-(2R,4R)-6-amino dioxolane adenosine]",,found to form the dioxolane-A triphosphate,
